Measured values from ChEMBL document CHEMBL4004838, “Design and synthesis of novel phenyl -1, 4-beta-carboline-hybrid molecules as potential anticancer agents” (Eur J Med Chem, 2017).
Calls of active or inactive are those of the source. No cut-off for these calls is given here.

Legend:
Bos taurus = species on record: Bos taurus; assay: Binding affinity to calf thymus DNA assessed as induction of hyperchromic shift at 20 uM sonicated for 35 to 40 mins by UV-vis spectrophotometric analysis
MOLT-4 = assay: Growth inhibition of human MOLT4 cells incubated for 48 hrs by sulforhodamine B assay; format: functional; settings: MOLT-4, 48 h
NCI-H23 = assay: Growth inhibition of human NCI-H23 cells incubated for 48 hrs by sulforhodamine B assay; format: functional; settings: NCI-H23, 48 h
SF-539 = assay: Growth inhibition of human SF539 cells incubated for 48 hrs by sulforhodamine B assay; format: functional; settings: SF-539, 48 h
Malme-3M = assay: Growth inhibition of human MALME-3M cells incubated for 48 hrs by sulforhodamine B assay; format: functional
OVCAR-3 = assay: Growth inhibition of human OVCAR3 cells incubated for 48 hrs by sulforhodamine B assay; format: functional; settings: OVCAR-3, 48 h
OVCAR-5 [1] = assay: Growth inhibition of human OVCAR5 cells incubated for 48 hrs by sulforhodamine B assay; format: functional; settings: OVCAR-5, 48 h
PC-3 = assay: Growth inhibition of human PC3 cells incubated for 48 hrs by sulforhodamine B assay; format: functional; settings: PC-3, 48 h
HL-60(TB) = assay: Growth inhibition of human HL-60(TB) cells assessed as cell growth at 0.01 uM incubated for 48 hrs by sulforhodamine B assay relative to control; format: functional; settings: HL-60, 48 h, read-out: Activity
NCI-H322M [2] = assay: Growth inhibition of human NCI-H322M cells assessed as cell growth at 0.01 uM incubated for 48 hrs by sulforhodamine B assay relative to control; format: functional; settings: read-out: Activity
NCI-H522 [3] = assay: Growth inhibition of human NCI-H522 cells assessed as cell growth at 0.01 uM incubated for 48 hrs by sulforhodamine B assay relative to control; format: functional; settings: NCI-H522, 48 h, read-out: Activity
U-251 = assay: Growth inhibition of human U251 cells assessed as cell growth at 0.01 uM incubated for 48 hrs by sulforhodamine B assay relative to control; format: functional; settings: U-251, 48 h, read-out: Activity
MDA-MB-468 [4] = assay: Growth inhibition of human MDA-MB-468 cells assessed as cell growth at 0.01 uM incubated for 48 hrs by sulforhodamine B assay relative to control; format: functional; settings: MDA-MB-468, 48 h, read-out: Activity
CCRF-CEM [5] = assay: Growth inhibition of human CCRF-CEM cells assessed as cell growth at 0.1 uM incubated for 48 hrs by sulforhodamine B assay relative to control; format: functional; settings: read-out: Activity
LOX IMVI = assay: Growth inhibition of human LOXIMVI cells assessed as cell growth at 0.1 uM incubated for 48 hrs by sulforhodamine B assay relative to control; format: functional; settings: read-out: Activity
CAKI-1 = assay: Growth inhibition of human Caki1 cells assessed as cell growth at 0.1 uM incubated for 48 hrs by sulforhodamine B assay relative to control; format: functional; settings: CAKI-1, 48 h, read-out: Activity
NCI-H522 [6] = assay: Growth inhibition of human NCI-H522 cells assessed as cell growth at 1 uM incubated for 48 hrs by sulforhodamine B assay relative to control; format: functional; settings: NCI-H522, 48 h, read-out: Activity
SK-MEL-28 = assay: Growth inhibition of human SK-MEL-28 cells assessed as cell growth at 1 uM incubated for 48 hrs by sulforhodamine B assay relative to control; format: functional; settings: SK-MEL-28, 48 h, read-out: Activity
OVCAR-4 = assay: Growth inhibition of human OVCAR4 cells assessed as cell growth at 1 uM incubated for 48 hrs by sulforhodamine B assay relative to control; format: functional; settings: OVCAR-4, 48 h, read-out: Activity
Hs-578T = assay: Growth inhibition of human Hs 578T cells assessed as cell growth at 1 uM incubated for 48 hrs by sulforhodamine B assay relative to control; format: functional; settings: read-out: Activity
T47D = assay: Growth inhibition of human T47D cells assessed as cell growth at 1 uM incubated for 48 hrs by sulforhodamine B assay relative to control; format: functional; settings: read-out: Activity
CCRF-CEM [7] = assay: Growth inhibition of human CCRF-CEM cells assessed as cell growth at 100 uM incubated for 48 hrs by sulforhodamine B assay relative to control; format: functional; settings: read-out: Activity
K562 = assay: Growth inhibition of human K562 cells assessed as cell growth at 100 uM incubated for 48 hrs by sulforhodamine B assay relative to control; format: functional; settings: K562, 48 h, read-out: Activity
A549 = assay: Growth inhibition of human A549/ATCC cells assessed as cell growth at 100 uM incubated for 48 hrs by sulforhodamine B assay relative to control; format: functional; settings: A549, 48 h, read-out: Activity
NCI-H322M [8] = assay: Growth inhibition of human NCI-H322M cells assessed as cell growth at 100 uM incubated for 48 hrs by sulforhodamine B assay relative to control; format: functional; settings: read-out: Activity
COLO 205 = assay: Growth inhibition of human COLO205 cells assessed as cell growth at 100 uM incubated for 48 hrs by sulforhodamine B assay relative to control; format: functional; settings: COLO 205, 48 h, read-out: Activity
OVCAR-5 [9] = assay: Growth inhibition of human OVCAR5 cells assessed as cell growth at 100 uM incubated for 48 hrs by sulforhodamine B assay relative to control; format: functional; settings: OVCAR-5, 48 h, read-out: Activity
SK-OV-3 = assay: Growth inhibition of human SKOV3 cells assessed as cell growth at 100 uM incubated for 48 hrs by sulforhodamine B assay relative to control; format: functional; settings: SK-OV-3, 48 h, read-out: Activity
786-0 = assay: Growth inhibition of human 786-0 cells assessed as cell growth at 100 uM incubated for 48 hrs by sulforhodamine B assay relative to control; format: functional; settings: 786-0, 48 h, read-out: Activity
MDA-MB-468 [10] = assay: Growth inhibition of human MDA-MB-468 cells assessed as cell growth at 100 uM incubated for 48 hrs by sulforhodamine B assay relative to control; format: functional; settings: MDA-MB-468, 48 h, read-out: Activity
[11] = read-out: LC50 (the source's name)
[12] = read-out: pLC50 (the source's name) (converted)

In the case of `c1ccc2c3c([nH]c2c1)C(c1ccc(C2NCCc4c2[nH]c2ccccc42)cc1)NCC3` (racemic), the Activity (Bos taurus) is reported as “Active”, the CC50 (MOLT-4; [11]) is reported as 8.03 µM and the GI50 (MOLT-4; read-out: pGI50 (converted)) is reported as 0.38 µM. It also gave a CC50 (MOLT-4; [12]) of 7.94 µM, a TGI (MOLT-4; read-out: pTGI (converted)) of 1.55 µM and a GI50 (NCI-H23; read-out: GI50) of 1.65 µM. The CC50 (NCI-H23; [11]) was 6.83 µM, the TGI (NCI-H23; read-out: TGI) was 3.36 µM and the GI50 (NCI-H23; read-out: pGI50 (converted)) was 1.66 µM. The CC50 (NCI-H23; [12]) was 6.76 µM, the TGI (NCI-H23; read-out: pTGI (converted)) was 3.39 µM and the GI50 (SF-539; read-out: GI50) was 1.62 µM. It also gave a CC50 (SF-539; [11]) of 5.71 µM, a TGI (SF-539; read-out: TGI) of 3.04 µM and a GI50 (SF-539; read-out: pGI50 (converted)) of 1.62 µM. It also gave a CC50 (SF-539; [12]) of 5.75 µM, a TGI (SF-539; read-out: pTGI (converted)) of 3.02 µM and a GI50 (Malme-3M; read-out: GI50) of 1.55 µM. It also gave a CC50 (Malme-3M; [11]) of 6.24 µM, a TGI (Malme-3M; read-out: TGI) of 3.11 µM and a GI50 (Malme-3M; read-out: pGI50 (converted)) of 1.55 µM. It also gave a CC50 (Malme-3M; [12]) of 6.17 µM, a TGI (Malme-3M; read-out: pTGI (converted)) of 3.09 µM and a GI50 (OVCAR-3; read-out: GI50) of 1.24 µM. For the same compound, the CC50 (OVCAR-3; [11]) was 5.43 µM, the TGI (OVCAR-3; read-out: TGI) was 2.6 µM and the GI50 (OVCAR-3; read-out: pGI50 (converted)) was 1.23 µM. The CC50 (OVCAR-3; [12]) was 5.5 µM, the TGI (OVCAR-3; read-out: pTGI (converted)) was 2.57 µM and the GI50 (OVCAR-5 [1]; read-out: GI50) was 1.8 µM. For the same compound, the CC50 (OVCAR-5 [1]; [11]) was 9.65 µM, the TGI (OVCAR-5 [1]; read-out: TGI) was 4.17 µM and the GI50 (OVCAR-5 [1]; read-out: pGI50 (converted)) was 1.82 µM. The CC50 (OVCAR-5 [1]; [12]) was 9.55 µM, the TGI (OVCAR-5 [1]; read-out: pTGI (converted)) was 4.17 µM and the GI50 (PC-3; read-out: GI50) was 1.27 µM. It also gave a CC50 (PC-3; [11]) of 5.69 µM, a TGI (PC-3; read-out: TGI) of 2.69 µM and a GI50 (PC-3; read-out: pGI50 (converted)) of 1.26 µM. For the same compound, the CC50 (PC-3; [12]) was 5.75 µM, the TGI (PC-3; read-out: pTGI (converted)) was 2.69 µM and the growth at 0.01 µM (HL-60(TB)) was 109%. For the same compound, the growth at 0.01 µM (NCI-H322M [2]) was 92%, the growth at 0.01 µM (NCI-H522 [3]) was 104% and the growth at 0.01 µM (U-251) was 98%. For the same compound, the growth at 0.01 µM (MDA-MB-468 [4]) was 95%, the growth at 0.1 µM (CCRF-CEM [5]) was 104% and the growth at 0.1 µM (LOX IMVI) was 91%. For the same compound, the growth at 0.1 µM (CAKI-1) was 93%, the growth at 1 µM (NCI-H522 [6]) was 16% and the growth at 1 µM (SK-MEL-28) was 91%. The growth at 1 µM (OVCAR-4) was 59%, the growth at 1 µM (Hs-578T) was 68% and the growth at 1 µM (T47D) was 66%. For the same compound, the growth at 100 µM (CCRF-CEM [7]) was 68%, the growth at 100 µM (K562) was 78% and the growth at 100 µM (A549) was 87%. It also gave a growth at 100 µM (NCI-H322M [8]) of 96%, a growth at 100 µM (COLO 205) of 84% and a growth at 100 µM (OVCAR-5 [9]) of 90%. The growth at 100 µM (SK-OV-3) was -96%, the growth at 100 µM (786-0) was -85% and the growth at 100 µM (MDA-MB-468 [10]) was -78%.
